For one compound, solubility results are on record in patent US9192675B2, “Dry powder inhaler and system for drug delivery” (MannKind Corporation, priority 2008, dated 2015).

The data set in a line: Solubility of FDKP as a function of pH. Format: physicochemical. The source says: These properties allow FDKP to crystallize under acidic conditions and the crystals self-assemble to form particles. The particles dissolve readily under physiological conditions where the pH is neutral. As noted, microparticles having a diameter of between about 0.5 and about 10 microns can reach the lungs, successfully passing most of the natural barriers. Particles in this size range can be readily prepared from FDKP.

Molecules are shown by their SMILES.

For `O=C(O)/C=C/C(=O)NCCCCC1NC(=O)C(CCCCNC(=O)/C=C/C(=O)O)NC1=O` (centres unmarked) [FDKP, bis-3,6-(N-fumaryl-4-aminobutyl)-2,5-diketopiperazine], the solubility result reads like this: (in acid) “low solubility in acid”; (neutral or basic pH) “readily soluble at neutral or basic pH”.
